Values after ≈ are worked out from the molar mass of the structure shown.
Assays:
[1] = tested on: Mycobacterium avium; assay: Antimycobacterial activity against Mycobacterium avium after 10 days by microbroth dilution method; type: functional; conditions: 240 h
[2] = tested on: Mycobacterium tuberculosis; assay: Antimycobacterial activity against Mycobacterium tuberculosis H37Rv after 10 days by microbroth dilution method; type: functional; conditions: 240 h
[3] = tested on: Mycolicibacter terrae; assay: Antimycobacterial activity against Mycobacterium terrae after 10 days by microbroth dilution method; type: functional; conditions: 240 h
[4] = Toxicity in peroral dosed mouse after 14 days; type: organism-based; conditions: in vivo, po

Row | Compound | MIC [1] | MIC [2] | MIC [3] | LD50 at 336 h [4]
1 | c1csc(-c2ccc(-c3ccncn3)s2)c1 | 51.2 µM (≈ 12.5 µg/mL) | 51.2 µM (≈ 12.5 µg/mL) | 51.2 µM (≈ 12.5 µg/mL) | 
2 | Brc1ccc(-c2cncnc2)s1 | 51.8 µM (≈ 12.5 µg/mL) | 51.8 µM (≈ 12.5 µg/mL) | 51.8 µM (≈ 12.5 µg/mL) | 
3 | c1csc(-c2ncncc2-c2ccsc2)c1 | 25.6 µM (≈ 6.25 µg/mL) | 25.6 µM (≈ 6.25 µg/mL) | 25.6 µM (≈ 6.25 µg/mL) | 
4 | c1csc(-c2ccc(-c3ncncc3-c3ccsc3)s2)c1 | 19.1 µM (≈ 6.25 µg/mL) | 19.1 µM (≈ 6.25 µg/mL) | 19.1 µM (≈ 6.25 µg/mL) | 
5 | c1ccc(-c2ccc(-c3ncncc3-c3ccsc3)s2)cc1 | 19.5 µM (≈ 6.25 µg/mL) | 19.5 µM (≈ 6.25 µg/mL) | 19.5 µM (≈ 6.25 µg/mL) | 
6 | Brc1ccc(-c2ncncc2-c2ccsc2)s1 | 19.3 µM (≈ 6.25 µg/mL) | 19.3 µM (≈ 6.25 µg/mL) | 19.3 µM (≈ 6.25 µg/mL) | 
7 | c1csc(-c2ncncc2-c2cc3ccccc3s2)c1 | 21.2 µM (≈ 6.25 µg/mL) | 21.2 µM (≈ 6.25 µg/mL) | 21.2 µM (≈ 6.25 µg/mL) | 
8 | c1csc(-c2ccc(-c3ncncc3-c3cc4ccccc4s3)s2)c1 | 33.2 µM (≈ 12.5 µg/mL) | 33.2 µM (≈ 12.5 µg/mL) | 33.2 µM (≈ 12.5 µg/mL) | 
9 | c1ccc(-c2ccc(-c3ncncc3-c3cc4ccccc4s3)s2)cc1 | 8.37 µM (≈ 3.1 µg/mL) | 8.37 µM (≈ 3.1 µg/mL) | 4.05 µM (≈ 1.5 µg/mL) | 
10 | Brc1ccc(-c2ncncc2-c2cc3ccccc3s2)s1 | 33.5 µM (≈ 12.5 µg/mL) | 33.5 µM (≈ 12.5 µg/mL) | 33.5 µM (≈ 12.5 µg/mL) | 
11 | c1csc(-c2ncncc2-c2csc3ccccc23)c1 | 42.5 µM (≈ 12.5 µg/mL) | 42.5 µM (≈ 12.5 µg/mL) | 42.5 µM (≈ 12.5 µg/mL) | 
12 | c1csc(-c2ccc(-c3ncncc3-c3csc4ccccc34)s2)c1 | 0.98 µM (≈ 0.369 µg/mL) | 0.98 µM (≈ 0.369 µg/mL) | 0.4 µM (≈ 0.151 µg/mL) | 90 mg/kg
13 | c1ccc(-c2ccc(-c3ncncc3-c3csc4ccccc34)s2)cc1 | 0.4 µM (≈ 0.148 µg/mL) | 0.4 µM (≈ 0.148 µg/mL) | 0.4 µM (≈ 0.148 µg/mL) | 45 mg/kg
14 | Brc1ccc(-c2ncncc2-c2csc3ccccc23)s1 | 8.3 µM (≈ 3.1 µg/mL) | 8.3 µM (≈ 3.1 µg/mL) | 4.02 µM (≈ 1.5 µg/mL) | 
15 | Brc1cncnc1 | 78.6 µM (≈ 12.5 µg/mL) | 78.6 µM (≈ 12.5 µg/mL) | 78.6 µM (≈ 12.5 µg/mL) | 
16 | c1csc(-c2cncnc2)c1 | 19.1 µM (≈ 3.1 µg/mL) | 38.5 µM (≈ 6.25 µg/mL) | 19.1 µM (≈ 3.1 µg/mL) | 
17 | c1ncc(-c2ccsc2)cn1 | 77.1 µM (≈ 12.5 µg/mL) | 77.1 µM (≈ 12.5 µg/mL) | 77.1 µM (≈ 12.5 µg/mL) | 
18 | c1ccc2sc(-c3cncnc3)cc2c1 | 58.9 µM (≈ 12.5 µg/mL) | 58.9 µM (≈ 12.5 µg/mL) | 58.9 µM (≈ 12.5 µg/mL) | 
19 | c1ccc2c(-c3cncnc3)csc2c1 | 3.3 µM (≈ 0.701 µg/mL) | 7.07 µM (≈ 1.5 µg/mL) | 3.3 µM (≈ 0.701 µg/mL) | 700 mg/kg
20 | c1csc(-c2ccc(-c3cncnc3)s2)c1 | 25.6 µM (≈ 6.25 µg/mL) | 25.6 µM (≈ 6.25 µg/mL) | 25.6 µM (≈ 6.25 µg/mL) | 
21 | c1ccc(-c2ccc(-c3cncnc3)s2)cc1 | 26.2 µM (≈ 6.25 µg/mL) | 26.2 µM (≈ 6.25 µg/mL) | 26.2 µM (≈ 6.25 µg/mL) | 
22 | Brc1ccc(-c2ncncc2Br)s1 | 9.69 µM (≈ 3.1 µg/mL) | 9.69 µM (≈ 3.1 µg/mL) | 9.69 µM (≈ 3.1 µg/mL) | 
23 | c1csc(-c2cncnc2-c2cccs2)c1 | 12.7 µM (≈ 3.1 µg/mL) | 12.7 µM (≈ 3.1 µg/mL) | 12.7 µM (≈ 3.1 µg/mL) | 
24 | c1csc(-c2ccc(-c3ncncc3-c3cccs3)s2)c1 | 0.92 µM (≈ 0.3 µg/mL) | 2.14 µM (≈ 0.699 µg/mL) | 0.92 µM (≈ 0.3 µg/mL) | 160 mg/kg
25 | c1ccc(-c2ccc(-c3ncncc3-c3cccs3)s2)cc1 | 39 µM (≈ 12.5 µg/mL) | 39 µM (≈ 12.5 µg/mL) | 39 µM (≈ 12.5 µg/mL) | 
26 | Brc1ccc(-c2ncncc2-c2cccs2)s1 | 38.7 µM (≈ 12.5 µg/mL) | 38.7 µM (≈ 12.5 µg/mL) | 38.7 µM (≈ 12.5 µg/mL) | 
27 | NNC(=O)c1ccncc1 [ISONIAZID] | 0.73 µM (≈ 0.1 µg/mL) | 0.73 µM (≈ 0.1 µg/mL) | 0.73 µM (≈ 0.1 µg/mL) | 
28 | NC(=O)c1cnccn1 [PYRAZINAMIDE] |  | 102 µM (≈ 12.5 µg/mL) |  | 

— ChEMBL document CHEMBL3421531, “Synthesis, and structure-activity relationship for C(4) and/or C(5) thienyl substituted pyrimidines, as a new family of antimycobacterial compounds” (Eur J Med Chem, 2015)
